# Reference: patent US9714250B2, “Crystalline forms of temozolomide and the method for preparing same” (Jiangsu Tasly Diyi Pharmaceutical Co., Ltd., priority 2013, dated 2017)
# Test: High humidity test (stability)
# Format: physicochemical
# Conditions: 25° C., relative humidity 75±5%, 10 days
# Experimental: In the following test, related substances were determined as follows: HPLC method was used and chromatographic conditions were as follows: C18 column using octadecylsilane bonded silica gel as the filler, isocratic elution using methanol: 0.5% glacial acetic acid solution (10:90) as the mobile phase, and detection wavelength was at 254 nm.
# Crystalline Form A of Temozolomide (Form A0 prepared by the method of EXAMPLE 1) was placed in 25° C. incubator (relative humidity: 75±5%), sampled and determined on the 5th and 10th day.
# Crystalline Form B of Temozolomide (Form B0 prepared by the method of EXAMPLE 6) was placed in 25° C. incubator (relative humidity: 75±5%), sampled and determined on the 5th and 10th day.
# Crystalline Form C of Temozolomide (Form C prepared by the method of EXAMPLE 14) was placed in 25° C. incubator (relative humidity: 75±5%), sampled and determined on the 5th and 10th day.
row,SMILES,Stability in the high-humidity test (conclusion)
1,"Cn1nnc2c(C(N)=O)ncn2c1=O [Form A, Temozolomide]",stable
2,"Cn1nnc2c(C(N)=O)ncn2c1=O [Form B, Temozolomide]",stable
3,"Cn1nnc2c(C(N)=O)ncn2c1=O [Form C, Temozolomide]",stable

# Same assay, conditions: 25° C., relative humidity 75±5%; 0th day
SMILES,Appearance and color,Content [%],Weight gain of moisture absorption [%]
"Cn1nnc2c(C(N)=O)ncn2c1=O [Form A, Temozolomide]",White powder,99.94,0
"Cn1nnc2c(C(N)=O)ncn2c1=O [Form B, Temozolomide]",White powder,99.97,0
"Cn1nnc2c(C(N)=O)ncn2c1=O [Form C, Temozolomide]",White powder,99.91,0

# Same assay, conditions: 25° C., relative humidity 75±5%; 0th day; HPLC
row,SMILES,Related substances
1,"Cn1nnc2c(C(N)=O)ncn2c1=O [Form A, Temozolomide]",Not detected
2,"Cn1nnc2c(C(N)=O)ncn2c1=O [Form B, Temozolomide]",Not detected
3,"Cn1nnc2c(C(N)=O)ncn2c1=O [Form C, Temozolomide]",Not detected

# Same assay, conditions: 25° C., relative humidity 75±5%; 5th day
SMILES,Appearance and color,Content [%],Weight gain of moisture absorption [%]
"Cn1nnc2c(C(N)=O)ncn2c1=O [Form A, Temozolomide]",White powder,99.73,0.32
"Cn1nnc2c(C(N)=O)ncn2c1=O [Form B, Temozolomide]",White powder,99.63,0.37
"Cn1nnc2c(C(N)=O)ncn2c1=O [Form C, Temozolomide]",White powder,99.85,0.29

# Same assay, conditions: 25° C., relative humidity 75±5%; 5th day; HPLC
row,SMILES,Related substances
1,"Cn1nnc2c(C(N)=O)ncn2c1=O [Form A, Temozolomide]",Not detected
2,"Cn1nnc2c(C(N)=O)ncn2c1=O [Form B, Temozolomide]",Not detected
3,"Cn1nnc2c(C(N)=O)ncn2c1=O [Form C, Temozolomide]",Not detected

# Same assay, conditions: 25° C., relative humidity 75±5%; 10th day
SMILES,Appearance and color,Content [%],Weight gain of moisture absorption [%]
"Cn1nnc2c(C(N)=O)ncn2c1=O [Form A, Temozolomide]",White powder,99.52,0.51
"Cn1nnc2c(C(N)=O)ncn2c1=O [Form B, Temozolomide]",White powder,99.57,0.52
"Cn1nnc2c(C(N)=O)ncn2c1=O [Form C, Temozolomide]",White powder,99.63,0.47

# Same assay, conditions: 25° C., relative humidity 75±5%; 10th day; HPLC
row,SMILES,Related substances
1,"Cn1nnc2c(C(N)=O)ncn2c1=O [Form A, Temozolomide]",Not detected
2,"Cn1nnc2c(C(N)=O)ncn2c1=O [Form B, Temozolomide]",Not detected
3,"Cn1nnc2c(C(N)=O)ncn2c1=O [Form C, Temozolomide]",Not detected

# Same assay, conditions: under the high-humidity condition
row,SMILES,Weight gain of moisture absorption (trend)
1,"Cn1nnc2c(C(N)=O)ncn2c1=O [Form A, Temozolomide]",slightly increased
2,"Cn1nnc2c(C(N)=O)ncn2c1=O [Form B, Temozolomide]",slightly increased
3,"Cn1nnc2c(C(N)=O)ncn2c1=O [Form C, Temozolomide]",slightly increased
